How the values were obtained:
[1] = tested on: Ascaris suum-sensitive sheep; assay: Ovine model of allergic pulmonary inflammation (Ascaris suum allergen challenge); assay type: in vivo; conditions: for EAR (ΔSLR × h): 0-4 h; for LAR (ΔSLR × h): 4-8 h; for PC400 (Post/Pre): carbachol 24 h post-challenge; for early and late airway response, hyperresponsiveness to carbachol (in words): aerosol 2 h before challenge
From the text: Allergic sheep weighing between 27-50 kg were used. […] The sheep were conscious and were restrained in a modified shopping cart in the prone position with their heads immobilized. After topical anesthesia of the nasal passages with 2% lidocaine, a balloon catheter was advanced through one nostril into the lower esophagus. The animals were intubated with a cuffed endotracheal tube through the other nostril using a flexible fiberoptic bronchoscope as a guide. All protocols used in this study were approved by the Mount Sinai Medical Center Animal Research Committee, which is responsible for assuring the humane care and use of experimental animals. Pleural pressure was estimated using an esophageal balloon catheter (filled with 1 mL of air), which was positioned 5 to 10 cm from the gastroesophageal-junction. In this position, the end expiratory pleural pressure ranged between −2 to −5-cmH2O. Once the balloon was placed, it was secured so that it remained in the same position for the duration of the experiment. Lateral pressure in the trachea was measured with a sidehole catheter (inner diameter, 2.5 mm) advanced through and positioned distal to the tip of the endotracheal tube.
The tracheal and pleural pressure catheters were connected to a differential pressure transducer (MP45, Validyne, Northridge, Calif.) for the measurement of transpulmonary pressure which was defined as the difference between tracheal and pleural pressure. Airflow was measured by connecting the proximal end of the endotracheal tube to a pneumotachograph (Fleisch, Dyna Sciences, Inc., Blue Bell, Pa.). The signals of transpulmonary pressure and flow were recorded on a multichannel physiological recorder which was linked to a 80-386 DOS Personal Computer for on-line calculation of mean pulmonary flow resistance (RL) by dividing the change in transpulmonary pressure by the change in flow at mid-tidal volume (obtained by digital integration). The mean of at least five breaths, free of swallowing artifact, was used to obtain RL in cmH2O/L/sec. Immediately after the measurement of RL, thoracic gas volume (Vtg) was measured in a constant-volume body plethysmograph to obtain specific lung resistance (SRL=RL×Vtg) in L×cmH2O/L/sec.
All liquid-dose aerosols were generated using a disposable medical air-jet nebulizer (Raindrop®, Puritan Bennett, Lenexa, Kans.) that provided an aerosol with a mass median aerodynamic diameter of 3.2 μm as determined by an Andersen cascade impactor. The nebulizer was connected to a dosimeter system, consisting of a solenoid valve and a source of compressed air (20 psi). The output of the nebulizer was directed into a plastic T-piece, one end of which was connected to the inspiratory port of a piston respirator (Harvard Apparatus, S. Natick, Mass.). The solenoid valve was activated for one second at the beginning of the inspiratory cycle of the respirator. Aerosols were delivered at a tidal volume of 500 mL and a rate of 20 breaths per minute. To assess bronchial responsiveness, cumulative concentration response curves to carbachol were performed by measuring SRL immediately after inhalation of buffer and after each consecutive administration of 10 breaths of increasing concentrations of carbachol (0.25, 0.5, 1.0, 2.0 and 4.0% w/v in buffered saline). The provocation test was discontinued when SRL increased over 400% from the post-saline value or after the highest carbachol concentration had been administered. Bronchial responsiveness was assessed by determining the cumulative carbachol concentration (in breath units) that increased SRL by 400% over the post-saline value (PC400) by interpolation from the dose response curve. One breath unit (BU) was defined as one breath of a 1% w/v carbachol nebulized solution.
Doses of oMePUPA-V were dissolved in either ethanol:normal saline 1:2, ethanol:200 mM sodium phosphate 1:5 or Tris buffer. When using Tris, any required dilution was performed using normal saline. […]

VLA-4 = VLA-4 (Homo sapiens, UniProt P05556+P13612); assay: Competition / dissociation assay with 3H-known inhibitor on Jurkat cells; assay type: binding; parameters: endogenous in cells; host or cells: Jurkat (human T cell line); conditions: Mn+2-activated VLA-4
Description: Jurkat cells were maintained in RPMI-1640 medium plus 10% fetal bovine serum at 37° C. in a tissue culture incubator. For binding studies, the cells were pelleted by centrifugation, washed two times with TBS (50 mM Tris HCl, 150 mM NaCl, 0.1% bovine serum albumin, 2 mM glucose, 10 mM HEPES pH 7.4), suspended at approximately 2×10^6 cells/ml in TBS, and counted using a Neubauer hemocytometer. The cells were further diluted to 1.5×10^6/ml in the buffers indicated and subjected to the specific treatments defined for each experiment. The cells were then pelleted by centrifugation, resuspended in 100 μl of assay buffer, and transferred to a scintillation vial containing 2.9 ml of ScintiVerse II (Fisher Scientific). Cell-associated radioactivity was quantified by scintillation counting. Counts bound under these conditions measures integrin that is not occupied by the test compound and is therefore free to bind the ^3H-known inhibitor. […] Specific counts bound were calculated by subtracting non-specific counts from total counts bound.
A series of competition studies were performed to verify that oMePUPA-V and the known inhibitor compete for the same site on VLA-4. […] Third, Mn^+2-activated Jurkat cells were treated with saturating amounts of oMePUPA-V, and the rate at which the oMePUPA-V dissociated was measured. […]

[2] = 0.01 mg aerosol, EtOH:NS, 2 hours prior to allergen challenge
[3] = 0.03 mg aerosol, EtOH:NS, 2 hours prior to allergen challenge
[4] = 0.03 mg once daily for 4 days, EtOH:NS, challenge 24 h after last dose
[5] = 0.03 mg once daily for 4 days, Tris:NS, challenge 24 h after last dose
[6] = 0.10 mg aerosol, EtOH:NS, 2 hours prior to allergen challenge
[7] = 1.00 mg aerosol, EtOH:PBS, 2 hours prior to allergen challenge
[8] = 3.00 mg aerosol, EtOH:PBS, 2 hours prior to allergen challenge

Sequence of VLA-4 (P13612 34-1032): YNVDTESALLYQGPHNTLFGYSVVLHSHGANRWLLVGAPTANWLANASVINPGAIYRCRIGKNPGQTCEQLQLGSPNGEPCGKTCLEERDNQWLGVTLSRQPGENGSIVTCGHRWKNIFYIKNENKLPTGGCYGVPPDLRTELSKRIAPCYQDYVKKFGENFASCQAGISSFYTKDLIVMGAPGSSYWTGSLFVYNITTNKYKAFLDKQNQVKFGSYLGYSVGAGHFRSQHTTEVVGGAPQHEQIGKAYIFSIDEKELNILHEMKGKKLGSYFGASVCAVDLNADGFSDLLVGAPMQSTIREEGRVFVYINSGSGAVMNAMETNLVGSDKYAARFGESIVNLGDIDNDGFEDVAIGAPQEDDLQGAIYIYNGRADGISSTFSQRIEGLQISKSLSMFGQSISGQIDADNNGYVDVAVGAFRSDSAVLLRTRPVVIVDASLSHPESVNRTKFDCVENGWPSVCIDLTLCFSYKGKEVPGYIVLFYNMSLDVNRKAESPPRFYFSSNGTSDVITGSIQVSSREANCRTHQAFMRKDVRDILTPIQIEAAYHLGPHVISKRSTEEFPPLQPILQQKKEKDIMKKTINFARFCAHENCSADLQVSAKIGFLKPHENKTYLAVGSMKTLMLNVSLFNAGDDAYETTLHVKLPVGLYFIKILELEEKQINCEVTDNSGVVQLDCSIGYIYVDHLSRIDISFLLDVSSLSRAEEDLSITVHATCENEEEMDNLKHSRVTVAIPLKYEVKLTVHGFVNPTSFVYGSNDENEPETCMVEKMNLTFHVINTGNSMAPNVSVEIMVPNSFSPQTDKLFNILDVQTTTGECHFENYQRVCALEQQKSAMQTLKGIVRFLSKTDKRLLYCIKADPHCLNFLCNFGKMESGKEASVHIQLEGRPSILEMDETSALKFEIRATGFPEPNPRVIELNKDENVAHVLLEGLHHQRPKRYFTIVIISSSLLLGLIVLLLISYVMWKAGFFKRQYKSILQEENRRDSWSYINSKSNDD
Sequence of VLA-4 (P05556 21-798): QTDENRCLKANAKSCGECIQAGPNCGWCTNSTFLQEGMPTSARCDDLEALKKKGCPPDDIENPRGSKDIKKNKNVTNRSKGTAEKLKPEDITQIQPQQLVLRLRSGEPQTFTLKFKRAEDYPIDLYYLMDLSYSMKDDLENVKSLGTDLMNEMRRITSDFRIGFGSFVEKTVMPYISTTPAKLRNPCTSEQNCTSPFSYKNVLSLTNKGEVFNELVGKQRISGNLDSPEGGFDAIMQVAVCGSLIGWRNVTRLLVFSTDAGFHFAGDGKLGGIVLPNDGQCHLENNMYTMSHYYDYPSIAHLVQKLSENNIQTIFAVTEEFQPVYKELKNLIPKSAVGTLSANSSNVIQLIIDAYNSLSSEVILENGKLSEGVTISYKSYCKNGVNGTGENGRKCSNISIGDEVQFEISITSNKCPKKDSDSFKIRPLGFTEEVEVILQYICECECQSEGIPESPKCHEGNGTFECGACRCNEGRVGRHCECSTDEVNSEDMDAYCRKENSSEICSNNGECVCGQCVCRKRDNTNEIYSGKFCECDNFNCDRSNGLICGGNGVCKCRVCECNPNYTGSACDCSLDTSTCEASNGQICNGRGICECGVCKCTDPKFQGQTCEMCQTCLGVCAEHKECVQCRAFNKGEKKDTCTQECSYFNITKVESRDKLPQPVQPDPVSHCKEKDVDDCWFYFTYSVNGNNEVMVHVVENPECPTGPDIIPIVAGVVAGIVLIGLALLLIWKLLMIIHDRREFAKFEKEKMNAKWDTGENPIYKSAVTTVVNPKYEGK

In the case of Cc1ccccc1NC(=O)Nc1ccc(CC(=O)N2CCC[C@H]2C(=O)N[C@H](C)CC(=O)O)cc1 [oMePUPA-V], the “EAR (ΔSLR × h)” value [1, 2] is reported as 6.87 ± 0.05 ΔSLR × h, the “LAR (ΔSLR × h)” value [1, 2] is reported as 5.11 ± 1.46 ΔSLR × h and the “PC400 (Post/Pre)” value [1, 2] is reported as 0.44 ± 0.04. The “EAR (ΔSLR × h)” value [1, 3] was 10.62 ± 3.91 ΔSLR × h, the “LAR (ΔSLR × h)” value [1, 3] was 3.98 ± 0.23 ΔSLR × h and the “PC400 (Post/Pre)” value [1, 3] was 0.43 ± 0.00. For the same compound, the “EAR (ΔSLR × h)” value [1, 4] was 1.53 ± 0.34 ΔSLR × h, the “LAR (ΔSLR × h)” value [1, 4] was 0.59 ± 0.16 ΔSLR × h and the “PC400 (Post/Pre)” value [1, 4] was 1.06 ± 0.04. For the same compound, the “EAR (ΔSLR × h)” value [1, 5] was 1.40 ± 0.35 ΔSLR × h, the “LAR (ΔSLR × h)” value [1, 5] was 0.02 ± 0.06 ΔSLR × h and the “PC400 (Post/Pre)” value [1, 5] was 1.04 ± 0.04. The “protection against EAR, LAR and hyperresponsiveness (in words)” value ([1]; 0.03 mg once daily for 4 days, antigen challenge 24 h after the last dose) was “protective”, the “EAR (ΔSLR × h)” value [1, 6] was 2.54 ± 0.74 ΔSLR × h and the “LAR (ΔSLR × h)” value [1, 6] was 0.67 ± 0.17 ΔSLR × h. For the same compound, the “PC400 (Post/Pre)” value [1, 6] was 1.18 ± 0.11, the “EAR (ΔSLR × h)” value [1, 7] was 2.14 ± 0.70 ΔSLR × h and the “LAR (ΔSLR × h)” value [1, 7] was 0.27 ± 0.34 ΔSLR × h. The “PC400 (Post/Pre)” value [1, 7] was 1.05 ± 0.11, the “EAR (ΔSLR × h)” value [1, 8] was 2.47 ± 0.62 ΔSLR × h and the “LAR (ΔSLR × h)” value [1, 8] was 0.68 ± 0.07 ΔSLR × h. The “PC400 (Post/Pre)” value [1, 8] was 1.07 ± 0.08, the “Minimum effective dose in sheep model, repeat-dose” value ([1]; daily for 4 days, antigen challenge 24 hours after the last dose) was 1 µg/kg and the “early and late airway response, hyperresponsiveness to carbachol (in words)” value ([1]; doses of 0.01 and 0.03 mg) was “did not inhibit early or late airway response”. The “early and late airway response, hyperresponsiveness to carbachol (in words)” value ([1]; doses of 0.1, 1 and 3 mg) was “inhibited the early airway response and maximally inhibited the late airway response”, the “Minimum effective dose in sheep model, single dose” value ([1]; single nebulized dose 2 hours before antigen challenge) was 3 µg/kg and the “concentration needed to compete 3H-known inhibitor binding, relative to cold known inhibitor” value (VLA-4) was 10 fold.
